# Experimental data as given in patent US20250179103A1, “6-OXODECAHYDROPYRROLO[1,2-A][1,5]DIAZOCINE AND 6-OXODECAHYDRO-4H-PYRROLO[2,1-D][1,5]THIAZOCINE DERIVATIVES AS STAT3 AND STAT6 MODULATORS FOR THE TREATMENT OF CANCER AND INFLAMMATORY CONDITIONS” (Recludix Pharma, Inc., priority 2022, published 2025).
# Experiments:
# [1] = biological target: T1, Recombinant STAT3 protein (STAT3(G127-I722)) (Homo sapiens, UniProt P40763); test: STAT3 Fluorescence Polarization (FP) Assay; assay type: binding; settings: STAT3(G127-I722) 25 nM, probe 5-FAM-GpYLPQTV-NH2 2 nM, 45-minute incubation
# T1 construct: Recombinant STAT3 protein (STAT3(G127-I722))
# Outline: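 Fluorescence polarization after a 45-min room-temperature incubation measured compound displacement of a 2 nM fluorescein-labelled phosphotyrosine peptide (5-FAM-GpYLPQTV-NH2) from 25 nM recombinant STAT3(G127-I722). Buffer was 10 mM HEPES pH 7.4 with 1% DMSO final. IC50s were fitted by nonlinear regression of mP against log concentration.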
# [2] = biological target: T2, Recombinant STAT6 protein (STAT6(W123-T658)) (Homo sapiens, UniProt P42226); test: STAT6 Fluorescence Polarization (FP) Assay; assay type: binding; settings: STAT6(W123-T658) 250 nM, probe 5-FAM-ApYKPFQDLI-NH2 2 nM, 45-minute incubation
# T2 construct: Recombinant STAT6 protein (STAT6(W123-T658))
# T2 sequence (P42226 123-658): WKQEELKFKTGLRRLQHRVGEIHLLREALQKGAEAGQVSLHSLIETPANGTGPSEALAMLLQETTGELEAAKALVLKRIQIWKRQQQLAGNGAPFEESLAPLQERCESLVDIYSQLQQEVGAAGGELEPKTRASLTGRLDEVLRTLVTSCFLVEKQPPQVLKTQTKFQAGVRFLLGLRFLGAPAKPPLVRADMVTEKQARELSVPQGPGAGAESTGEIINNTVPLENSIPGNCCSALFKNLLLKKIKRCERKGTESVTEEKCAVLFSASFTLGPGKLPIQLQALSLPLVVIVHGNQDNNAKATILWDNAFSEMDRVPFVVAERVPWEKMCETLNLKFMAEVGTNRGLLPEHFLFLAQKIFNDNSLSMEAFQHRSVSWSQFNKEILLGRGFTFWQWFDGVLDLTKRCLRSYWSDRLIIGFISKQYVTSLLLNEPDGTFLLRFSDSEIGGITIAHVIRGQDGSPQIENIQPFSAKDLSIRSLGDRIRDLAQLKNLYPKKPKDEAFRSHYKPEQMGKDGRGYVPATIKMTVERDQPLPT
# Outline: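 Displacement of a fluorescent phosphotyrosine peptide (5-FAM-ApYKPFQDLI-NH2, 2 nM) from STAT6(W123-T658) (250 nM), 1% DMSO, pH 7.4 HEPES buffer. After 45 min at room temperature, polarization (mP) was plotted versus log compound concentration and fitted by nonlinear regression to give IC50.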
# T1 sequence (P40763 127-722): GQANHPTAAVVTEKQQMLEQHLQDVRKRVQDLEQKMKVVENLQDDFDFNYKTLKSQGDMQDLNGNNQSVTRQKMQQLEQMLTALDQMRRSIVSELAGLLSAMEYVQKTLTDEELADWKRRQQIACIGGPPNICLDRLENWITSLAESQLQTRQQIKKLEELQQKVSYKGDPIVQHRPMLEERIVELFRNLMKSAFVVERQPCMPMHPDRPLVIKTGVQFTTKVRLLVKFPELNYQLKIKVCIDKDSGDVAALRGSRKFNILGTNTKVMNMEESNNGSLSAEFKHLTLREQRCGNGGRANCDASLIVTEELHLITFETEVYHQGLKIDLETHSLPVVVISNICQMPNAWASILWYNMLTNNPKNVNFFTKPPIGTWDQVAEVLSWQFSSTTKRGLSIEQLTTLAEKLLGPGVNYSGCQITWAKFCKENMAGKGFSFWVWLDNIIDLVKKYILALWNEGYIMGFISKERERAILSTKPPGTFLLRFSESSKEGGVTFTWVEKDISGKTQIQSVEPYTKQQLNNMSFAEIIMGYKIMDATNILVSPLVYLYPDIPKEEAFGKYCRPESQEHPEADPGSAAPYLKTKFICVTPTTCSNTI
SMILES,IC50 [1] [nM],IC50 [2] [nM]
"CC(=O)N1CC[C@H]2CC[C@@H](C(=O)N(C)CC(C)(C)C#N)N2C(=O)[C@@H](NC(=O)c2cc3cc(C(F)(F)P(=O)(O)O)ccc3s2)C1 [Compound 92, ((2-(((5S,8S,10aR)-3-acetyl-8-((2-cyano-2-methylpropyl)(methyl)carbamoyl)-6-oxodecahydropyrrolo[1,2-a][1,5]diazocin-5-yl)carbamoyl)benzo[b]thiophen-5-yl)difluoromethyl)phosphonic acid]",1000 to 10000,300 to 3000
"Cc1ccc2onc(C(=O)N3CC[C@H]4CC[C@@H](C(=O)N5C[C@H](c6ccn(C)c(=O)c6)CC56CC6)N4C(=O)[C@@H](NC(=O)c4ccc5ccc([C@@H](F)P(=O)(O)O)cc5c4)C3)c2c1 [Compound 391, ((S)-fluoro(7-(((5S, 8S,10aR)-8-((S)-6-(1-methyl-2-oxo-1,2-dihydropyridin-4-yl)-4-azaspiro[2.4]heptane-4-carbonyl)-3-(5-methylbenzo[d]isoxazole-3-carbonyl)-6-oxodecahydropyrrolo [1,2-a][1,5]diazocin-5-yl)carbamoyl)naphthalen-2-yl)methyl) phosphonic acid]",> 10000,≤ 300
"CC(=O)N1CC[C@H]2CC[C@@H](C(=O)Nc3ccc4c(cnn4C)c3)N2C(=O)[C@@H](NC(=O)c2cc3cc(C(F)(F)P(=O)(O)O)ccc3s2)C1 [Compound 161, ((2-(((5S,8S,10aR)-3-acetyl-8-((1-methyl-1H-indazol-5-yl)carbamoyl)-6-oxodecahydropyrrolo[1,2-a][1,5]diazocin-5-yl)carbamoyl)benzo[b]thiophen-5-yl)difluoromethyl)phosphonic acid]",1000 to 10000,300 to 3000
"CNC(=O)[C@@H]1CC[C@@H]2CCN(C(=O)c3n[nH]c4ccc(C)cc34)C[C@H](NC(=O)c3ccc4ccc(C(F)(F)P(=O)(O)O)cc4c3)C(=O)N21 [Compound 237, (difluoro(7-(((5S,8S,10aR)-3-(5-methyl-1H-indazole-3-carbonyl)-8-(methylcarbamoyl)-6-oxodecahydropyrrolo[1,2-a][1,5]diazocin-5-yl)carbamoyl)naphthalen-2-yl)methyl)phosphonic acid]",100 to 1000,≤ 300
"CC(=O)N1CC[C@H]2CC[C@@H](C(=O)Nc3cc(C)c4[nH]ncc4c3)N2C(=O)[C@@H](NC(=O)c2cc3cc(C(F)(F)P(=O)(O)O)ccc3s2)C1 [Compound 67, ((2-(((5S,8S,10aR)-3-acetyl-8-((7-methyl-1H-indazol-5-yl)carbamoyl)-6-oxodecahydropyrrolo[1,2-a][1,5]diazocin-5-yl)carbamoyl)benzo[b]thiophen-5-yl)difluoromethyl)phosphonic acid]",1000 to 10000,300 to 3000
"CC(=O)N1CC[C@H]2CC[C@@H](C(=O)Nc3ccc4nccn4c3)N2C(=O)[C@@H](NC(=O)c2cc3cc(C(F)(F)P(=O)(O)O)ccc3s2)C1 [Compound 72, ((2-(((5S,8S,10aR)-3-acetyl-8-(imidazo[1,2-a]pyridin-6-ylcarbamoyl)-6-oxodecahydropyrrolo[1,2-a][1,5]diazocin-5-yl)carbamoyl)benzo[b]thiophen-5-yl)difluoromethyl)phosphonic acid]",1000 to 10000,300 to 3000
"CC(=O)N1CC[C@H]2CC[C@@H](C(=O)N(C)c3ccc(C(C)(C)CO)cc3)N2C(=O)[C@@H](NC(=O)c2cc3cc(C(F)(F)P(=O)(O)O)ccc3s2)C1 [Compound 156, ((2-(((5S,8S,10aR)-3-acetyl-8-((4-(1-hydroxy-2-methylpropan-2-yl)phenyl)(methyl)carbamoyl)-6-oxodecahydropyrrolo[1,2-a][1,5]diazocin-5-yl)carbamoyl)benzo[b]thiophen-5-yl)difluoromethyl)phosphonic acid]",1000 to 10000,300 to 3000
"O=C(N[C@H]1CSCC[C@H]2CC[C@@H](C(=O)N3CC(c4cccnc4)C3)N2C1=O)c1cc2cc(C(F)(F)P(=O)(O)O)ccc2s1 [Compound 405, (difluoro(2-(((5R,8S, 10aR)-6-oxo-8-(3-(pyridin-3-yl)azetidine-1-carbonyl)octahydro-4H-pyrrolo[2,1-d][1,5]thiazocin-5-yl)carbamoyl)benzo[b]thiophen-5-yl)methyl) phosphonic acid]",≤ 100,3000 to 30000
"CC(=O)N1CC[C@H]2CC[C@@H](C(=O)N(C)c3ccc(OCCN(C)C)cc3)N2C(=O)[C@@H](NC(=O)c2cc3cc(C(F)(F)P(=O)(O)O)ccc3s2)C1 [Compound 125, ((2-(((5S,8S,10aR)-3-acetyl-8-((4-(2-(dimethylamino)ethoxy)phenyl)(methyl)carbamoyl)-6-oxodecahydropyrrolo[1,2-a][1,5]diazocin-5-yl)carbamoyl)benzo[b]thiophen-5-yl)difluoromethyl)phosphonic acid]",1000 to 10000,300 to 3000
"CC(=O)N1CC[C@H]2CC[C@@H](C(=O)N3CCC(Oc4ccncc4)C3)N2C(=O)[C@@H](NC(=O)c2cc3cc(C(F)(F)P(=O)(O)O)ccc3s2)C1 (stereo partly drawn) [Compound 95, ((1-(((5S,8S,10aR)-3-acetyl-6-oxo-8-(3-(pyridin-4-yloxy)pyrrolidine-1-carbonyl)decahydropyrrolo[1,2-a][1,5]diazocin-5-yl)carbamoyl)benzo[b]thiophen-5-yl)difluoromethyl)phosphonic acid]",100 to 1000,300 to 3000
"O=C(N[C@H]1CCN(CC(F)F)C[C@H]2CC[C@@H](C(=O)N3CC(c4cc[nH]c(=O)c4)CC34CC4)N2C1=O)c1ccc2ccc(C(F)(F)P(=O)(O)O)cc2c1 (stereo partly drawn) [Compound 234, ((7-(((5S,8S,10aR)-2-(2,2-difluoroethyl)-6-oxo-8-(6-(2-oxo-1,2-dihydropyridin-4-yl)-4-azaspiro[2.4]heptane-4-carbonyl)decahydropyrrolo[1,2-a][1,4]diazocin-5-yl)carbamoyl)naphthalen-2-yl)difluoromethyl)phosphonic acid]",> 10000,≤ 300
"CC(=O)N1CC[C@H]2CC[C@@H](C(=O)Nc3ccc(-n4ccccc4=O)cc3)N2C(=O)[C@@H](NC(=O)c2cc3cc(C(F)(F)P(=O)(O)O)ccc3[nH]2)C1 [Compound 103, ((2-(((5S,8S,10aR)-3-acetyl-6-oxo-8-((4-(2-oxopyridin-1(2H)-yl)phenyl)carbamoyl)decahydropyrrolo[1,2-a][1,5]diazocin-5-yl)carbamoyl)-1H-indol-5-yl)difluoromethyl)phosphonic acid]",1000 to 10000,3000 to 30000
"N#Cc1cccc(C2CN(C(=O)[C@@H]3CC[C@@H]4CCN(Cc5ncccn5)C[C@H](NC(=O)c5cc6cc(CP(=O)(O)O)ccc6s5)C(=O)N43)C2)n1 [Compound 399, ((2-(((5S,8S,10aR)-8-(3-(6-cyanopyridin-2-yl)azetidine-1-carbonyl)-6-oxo-3-(pyrimidin-2-ylmethyl)decahydro-pyrrolo[1,2-a][1,5]diazocin-5-yl)carbamoyl)benzo[b]thiophen-5-yl)methyl) phosphonic acid]",100 to 1000,> 30000
"CC(=O)N1CC[C@H]2CC[C@@H](C(=O)Nc3ccc4nnccc4c3)N2C(=O)[C@@H](NC(=O)c2cc3cc(C(F)(F)P(=O)(O)O)ccc3s2)C1 [Compound 174, ((2-(((5S,8S,10aR)-3-acetyl-8-(cinnolin-6-ylcarbamoyl)-6-oxodecahydropyrrolo[1,2-a][1,5]diazocin-5-yl)carbamoyl)benzo[b]thiophen-5-yl)difluoromethyl)phosphonic acid]",100 to 1000,≤ 300
"CC(=O)N1CC[C@H]2CC[C@@H](C(=O)N3CCC[C@@H]3Cc3ccccc3)N2C(=O)[C@@H](NC(=O)c2cc3cc(C(F)(F)P(=O)(O)O)ccc3[nH]2)C1 [Compound 129, ((2-(((5S,8S,10aR)-3-acetyl-8-((R)-2-benzylpyrrolidine-1-carbonyl)-6-oxodecahydropyrrolo[1,2-a][1,5]diazocin-5-yl)carbamoyl)-1H-indol-5-yl)difluoromethyl)phosphonic acid]",1000 to 10000,300 to 3000
"Cc1ccc2[nH]nc(C(=O)N3CC[C@H]4CC[C@@H](C(=O)N5C[C@H](c6ccccc6)[C@@H](C#N)C5)N4C(=O)[C@@H](NC(=O)c4ccc5ccc(C(F)(F)P(=O)(O)O)cc5c4)C3)c2c1 (relative stereo) [Compound 236, ((7-(((5S,8S,10aR)-8-((rel-trans)-3-cyano-4-phenylpyrrolidine-1-carbonyl)-3-(5-methyl-1H-indazole-3-carbonyl)-6-oxodecahydropyrrolo[1,2-a][1,5]diazocin-5-yl)carbamoyl)naphthalen-2-yl)difluoromethyl)phosphonic acid]",100 to 1000,≤ 300
